Source: patent publication US7361743B2 (Pfizer Inc, priority 2004, dated 2008)
≈ marks a conversion by molar mass, not a printed value. Like-named read-outs stand apart in the source and are kept apart here.

Assays:
[1] = test system: Staphylococcus aureus; assay: Susceptibility testing, NCCLS microdilution MIC; format: cell-based
[2] = test system: Bacteroides fragilis; assay: Susceptibility testing, NCCLS microdilution MIC (anaerobe); format: cell-based; conditions: Bacteroides fragilis, ATCC25285; B. fragilis ATCC 25285; Example A′; read-out: MIC B. fragilis
[3] = test system: Enterococcus faecalis; assay: Susceptibility testing, NCCLS microdilution MIC; format: cell-based; conditions: Enterococcus faecalis, Example A′
[4] = test system: Haemophilus influenzae; assay: Susceptibility testing, NCCLS microdilution MIC; format: cell-based; conditions: Haemophilus influenzae, Example A′
[5] = test system: E. coli transcription/translation (bacterial protein synthesis, E. coli S30 extract); assay: In vitro inhibition of E. coli transcription and translation assay (TT), cell-free; format: biochemical; conditions: for IC50: cell-free E. coli S30 extract; for In vitro inhibition of E. coli transcription and translation compared with literature azepine compound VIII(18): cell-free TT assay, comparison in words
Description: Inhibition of bacterial protein synthesis was assayed in a cell-free E. coli transcription/translation assay.
Stock solutions of compounds were prepared at 10 mg/mL in DMSO. The assay contained less or equal to 1% (v/v) final concentration of DMSO. Three-fold serial dilutions were prepared in assay buffer at 6-fold final concentration in 96 well microtiter plate.
All vials, tubes and microtiter plates are RNase free. The Mix was freshly prepared with 10 μl H2O, 10 μl AA-M, 10 μl AA-L, 80 μl Premix and 50 μl ES30 extract. The assay was performed in a 96-well plate. Five microliters of compounds at various concentrations (6-fold final assay concentration) were preincubated with 20 μl of the mix for 5 min at room temperature. The reaction started with addition of 5 μl of plasmid (˜0.1 mg/mL pGEMBGAL), and kept at 37° C. for 1 h followed by the addition of 150 μl of OPNG solution (4 mg/mL OPNG in 0.1M NaPi, pH 7.5, 1 mM MgCl2 and 2 mM DTT). 150 μl of the reaction was transferred to a ½-area plate and increase in absorption at OD420 nm was monitored for 10 min using a Spectramax plate reader (Molecular Devices). The slope of absorption change over time is corresponding to the pathway activity.
The E. coli S30 Extract for circular DNA kit was purchased from Promega. Original plasmid pGEMBGAL was obtained from Promega and amplified via Maxiprep in house. 2-Nitrophenyl β-D-galactopyranoside was obtained from Sigma. Clindamycin HCl (USP) was purchased from Spectrum.
The inhibition are expressed as percent of control activity (without inhibitor) which is calculated according to equation (1): Inhibition %=(compound slope-blank slope)/(control slope-blank slope)*100 (1)
All IC50s were determined by fitting the experimental data to equation (2) using software DeltaGraph (DeltaPoint Inc.): Y=Y0/(1+(X/IC50)[…])+c (2)
Where Y: activity at given inhibitor concentration; Y0: activity without inhibitor; X: inhibitor concentration; d: slope; c: constant.
Lincosamides inhibit bacterial growth through binding to the bacterial 50S ribosome, thus inhibiting peptide bond formation. The transcription/translation assay provides a screening tool to measure inhibition of bacterial protein synthesis pathway at the target level without the complication of differences in membrane permeability.

[6] = ATCC25923, S. aureus ATCC 25923, Example A′, read-out: MIC S. aureus
[7] = ATCC29212, E. faecalis ATCC 29212, read-out: MIC E. faecalis
[8] = ATCC31517, H. influenzae ATCC 31517, read-out: MIC H. influenzae

Row | Compound | MIC [1, 6] [µg/mL] | MIC [2] [µg/mL] | MIC [3, 7] [µg/mL] | MIC [4, 8] [µg/mL] | IC50 [5] [nM] | In vitro inhibition of E. coli transcription and translation compared with literature azepine compound VIII(18) [5] | MIC ([1]; Example A′, strain not stated, 24 h at 35° C., read-out: MIC against Staphylococcus aureus) [µg/mL] | MIC ([3]; strain not stated, 24 h at 35° C., read-out: MIC against Enterococcus faecalis) [µg/mL] | MIC ([4]; strain not stated, 24 h at 35° C., read-out: MIC against Haemophilus influenzae) [µg/mL]
1 | CS[C@H]1O[C@H]([C@H](NC(=O)C2CC[C@H](CCCCO)CCN2)[C@H](C)Cl)[C@H](O)[C@H](O)[C@H]1O (stereo in doubt) [Example 1′, 5-(4-Hydroxy-butyl)-azepane-2-carboxylic acid [2-chloro-1-(3,4,5-trihydroxy-6-methylsulfanyl-tetrahydro-pyran-2-yl)-propyl]-amide] | 0.25 (≈ 0.533 µM) | 8 (≈ 17.1 µM) | 1 (≈ 2.13 µM) | 0.5 (≈ 1.07 µM) | 530 | markedly superior |  |  | 
2 | CS[C@H]1O[C@H]([C@H](NC(=O)C2CC[C@H](CCCO)CCN2)[C@H](C)Cl)[C@H](O)[C@H](O)[C@H]1O (stereo in doubt) [Example 2′, 5-(3-Hydroxy-propyl)-azepane-2-carboxylic acid [2-chloro-1-(3,4,5-trihydroxy-6-methylsulfanyl-tetrahydro-pyran-2-yl)-propyl]-amide] | 0.5 (≈ 1.1 µM) | 4 (≈ 8.79 µM) | 1 (≈ 2.2 µM) | 0.5 (≈ 1.1 µM) | 400 | markedly superior |  |  | 
3 | CS[C@H]1O[C@H]([C@H](NC(=O)C2CC[C@H](CCCCC#N)CCN2)[C@H](C)Cl)[C@H](O)[C@H](O)[C@H]1O (stereo in doubt) [Example 8′, 5-(4-Cyano-butyl)-azepane-2-carboxylic acid [2-chloro-1-(3,4,5-trihydroxy-6-methylsulfanyl-tetrahydro-pyran-2-yl)-propyl]-amide] | 0.125 (≈ 0.261 µM) | 1 (≈ 2.09 µM) | 0.06 (≈ 0.126 µM) | 0.5 (≈ 1.05 µM) | 190 | markedly superior |  |  | 
4 | CS[C@H]1O[C@H]([C@H](NC(=O)C2CC[C@H](CCCn3ccnn3)CCN2)[C@H](C)Cl)[C@H](O)[C@H](O)[C@H]1O (stereo in doubt) [Example 9′, 5-(3-[1,2,3]Triazol-1-yl-propyl)-azepane-2-carboxylic acid [2-chloro-1-(3,4,5-trihydroxy-6-methylsulfanyl-tetrahydro-pyran-2-yl)-propyl]-amide] | 0.5 (≈ 0.988 µM) | > 8 | 4 (≈ 7.9 µM) | 2 (≈ 3.95 µM) | 280 | markedly superior |  |  | 
5 | CS[C@H]1O[C@H]([C@H](NC(=O)[C@@H]2CC[C@H](CCC(F)F)CCN2)[C@H](C)Cl)[C@H](O)[C@H](O)[C@H]1O [Example 10′, 5-(3,3-Difluoro-propyl)-azepane-2-carboxylic acid [2-chloro-1-(3,4,5-trihydroxy-6-methylsulfanyl-tetrahydro-pyran-2-yl)-propyl]-amide] | 0.06 (≈ 0.126 µM) | 1 (≈ 2.11 µM) | 0.125 (≈ 0.263 µM) | 0.5 (≈ 1.05 µM) | 530 | markedly superior |  |  | 
6 | CS[C@H]1O[C@H]([C@H](NC(=O)[C@@H]2CC[C@H](CCCC(F)F)CCN2)[C@H](C)Cl)[C@H](O)[C@H](O)[C@H]1O [Example 11′, 5-(4,4-Difluoro-butyl)-azepane-2-carboxylic acid [2-chloro-1-(3,4,5-trihydroxy-6-methylsulfanyl-tetrahydro-pyran-2-yl)-propyl]-amide] | 0.06 (≈ 0.123 µM) | 1 (≈ 2.04 µM) | 0.06 (≈ 0.123 µM) | 0.25 (≈ 0.511 µM) | 250 | markedly superior |  |  | 
7 | COCCCC[C@@H]1CCN[C@H](C(=O)N[C@@H]([C@H]2O[C@H](SC)[C@H](O)[C@@H](O)[C@H]2O)[C@H](C)Cl)CC1 [Example 12′, 5-(4-Methoxy-butyl)-azepane-2-carboxylic acid [2-chloro-1-(3,4,5-trihydroxy-6-methylsulfanyl-tetrahydro-pyran-2-yl)-propyl]-amide] | 0.06 (≈ 0.124 µM) | 2 (≈ 4.14 µM) | 0.5 (≈ 1.04 µM) | 0.5 (≈ 1.04 µM) | 290 | markedly superior |  |  | 
8 | CS[C@H]1O[C@H]([C@H](NC(=O)[C@@H]2CC[C@H](CCCCOc3cccnc3)CCN2)[C@H](C)Cl)[C@H](O)[C@H](O)[C@H]1O [Example 14′, 5-[4-(Pyridin-3-yloxy)-butyl]-azepane-2-carboxylic acid [2-chloro-1-(3,4,5-trihydroxy-6-methylsulfanyl-tetrahydro-pyran-2-yl)-propyl]-amide] | 0.125 (≈ 0.229 µM) | 8 (≈ 14.6 µM) | 0.5 (≈ 0.916 µM) | 1 (≈ 1.83 µM) | 200 | markedly superior |  |  | 
9 | CS[C@H]1O[C@H]([C@H](NC(=O)[C@@H]2CC[C@H](CCCOc3cccnc3)CCN2)[C@H](C)Cl)[C@H](O)[C@H](O)[C@H]1O [Example 15′, 5-[3-(Pyridin-3-yloxy)-propyl]-azepane-2-carboxylic acid [2-chloro-1-(3,4,5-trihydroxy-6-methylsulfanyl-tetrahydro-pyran-2-yl)-propyl]-amide] | 0.125 (≈ 0.235 µM) | > 8 | 0.5 (≈ 0.94 µM) | 2 (≈ 3.76 µM) | 1100 | markedly superior |  |  | 
10 | COCc1cn(CCC[C@@H]2CCN[C@H](C(=O)N[C@@H]([C@H]3O[C@H](SC)[C@H](O)[C@@H](O)[C@H]3O)[C@H](C)Cl)CC2)nn1 [Example 16′, 5-[3-(4-Methoxymethyl-[1,2,3]triazol-1-yl)-propyl]-azepane-2-carboxylic acid [2-chloro-1-(3,4,5-trihydroxy-6-methylsulfanyl-tetrahydro-pyran-2-yl)-propyl]-amide] | 2 (≈ 3.64 µM) | > 8 | > 8 | 2 (≈ 3.64 µM) | 440 | markedly superior |  |  | 
11 | CCCc1cn(CCC[C@@H]2CCN[C@H](C(=O)N[C@@H]([C@H]3O[C@H](SC)[C@H](O)[C@@H](O)[C@H]3O)[C@H](C)Cl)CC2)nn1 [Example 17′, 5-[3-(4-Propyl-[1,2,3]triazol-1-yl)-propyl]-azepane-2-carboxylic acid [2-chloro-1-(3,4,5-trihydroxy-6-methylsulfanyl-tetrahydro-pyran-2-yl)-propyl]-amide] | 1 (≈ 1.82 µM) | > 8 | 8 (≈ 14.6 µM) | 4 (≈ 7.3 µM) | 750 | markedly superior |  |  | 
12 | CS[C@H]1O[C@H]([C@H](NC(=O)[C@@H]2CC[C@H](CCCn3cc(C(C)C)nn3)CCN2)[C@H](C)Cl)[C@H](O)[C@H](O)[C@H]1O [Example 18′, 5-[3-(4-(2-Propyl)-[1,2,3]triazol-1-yl)-propyl]-azepane-2-carboxylic acid [2-chloro-1-(3,4,5-trihydroxy-6-methylsulfanyl-tetrahydro-pyran-2-yl)-propyl]-amide] | 1 (≈ 1.82 µM) | > 8 | 4 (≈ 7.3 µM) | 4 (≈ 7.3 µM) | 440 | markedly superior |  |  | 
13 | CS[C@H]1O[C@H]([C@H](NC(=O)[C@@H]2CCCCCN2)[C@H](C)Cl)[C@H](O)[C@H](O)[C@H]1O [VIII(18), Azepane-2-carboxylic acid [2-chloro-1-(3,4,5-trihydroxy-6-methylsulfanyl-tetrahydro-pyran-2-yl)-propyl]-amide, reference compound] | 4 (≈ 10.1 µM) | 2 (≈ 5.04 µM) | 8 (≈ 20.2 µM) | > 8 | 21000 |  | 4 (≈ 10.1 µM) | 8 (≈ 20.2 µM) | > 8
